We go through 19 compounds from patent US20250101028A1, “HETEROCYCLIC COMPOUNDS, COMPOSITIONS THEREOF, AND METHODS OF TREATMENT THEREWITH” (BeiGene, Ltd., priority 2022, published 2025).

By IC50 is commonly meant the concentration at which inhibition is half-maximal. Lower therefore signals inhibition by little substance.

This assay deals with T1, GST-tagged GDP-loaded KRAS G12V (amino acids 1-169) (Homo sapiens, UniProt P01116, G12V).
T1 construct: GST-tagged GDP-loaded KRAS G12V (amino acids 1-169); made in house; host or cells: E. coli
The experiment in a line: KRAS G12V probe displacement assay (TR-FRET). It counts as binding. The conditions noted are these: displacement of biotinylated probe 2 from GDP-loaded KRAS G12V. The protocol: KRAS WT and KRAS G12V Probe Displacement Assay
This assay was used to identify compounds which bind to GDP-loaded KRAS protein and are able to displace a biotinylated probe occupying the KRAS binding site. GST-tagged GDP-loaded WT KRAS (amino acids 1-169) and GST-tagged GDP-loaded KRAS G12V (amino acids 1-169) were expressed in E. coli and purified in house. All protein and reaction solutions were prepared in assay buffer containing 50 mM HEPES pH7.5, 50 mM NaCl, 1 mM MgCl2, 1 mM TCEP, 0.01% BSA, and 0.008% Brij-35. Purified WT KRAS (3 nM final concentration) or KRAS G12V protein (2 nM final concentration) was incubated with a 3-fold serially diluted compound in the assay plate (384 well microplate, black, Corning). Plates are incubated at 24° C. for 1 hr. Following the incubation, biotinylated probe 1 (60 nM final assay concentration) for WT KRAS and biotinylated probe 2 (2.5 nM final assay concentration) for KRAS G12V was added to the assay plate, respectively. After 1 hr incubation at 24° C., Mab Anti-GST-Tb cryptate (Cisbio) and Streptavidin-XL665 (Cisbio) were added and further incubated at 24° C. for another 1 hr. The TR-FRET signals (ex337 nm, em665 nm/620 nm) were read on BMG PHERAstar FSX instrument. The inhibition percentage of KRAS protein binding with biotinylated probe in presence of increasing concentrations of compounds was calculated based on the ratio of fluorescence at 665 nm to that at 620 nm. The IC50 value of each compound was calculated from fitting the data to the four-parameter logistic model by Dotmatics.
In general terms: Time-resolved FRET reads energy transfer from a long-lived donor to a nearby acceptor.

T1 sequence (P01116 1-169 isoform P01116-2 G12V): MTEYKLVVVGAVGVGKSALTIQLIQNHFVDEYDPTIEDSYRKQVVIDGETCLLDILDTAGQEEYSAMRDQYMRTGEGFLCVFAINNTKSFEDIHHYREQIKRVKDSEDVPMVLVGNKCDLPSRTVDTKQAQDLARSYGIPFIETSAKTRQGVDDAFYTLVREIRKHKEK

In turn, `Nc1nc2c(-c3c(C(F)(F)F)cc4c(N5CC[C@H](CO)C5)nc(OC[C@@]56CCCN5C[C@H](F)C6)nc4c3F)ccc(F)c2s1` [Example 66, ((3S)-1-(7-(2-amino-7-fluorobenzo[d]thiazol-4-yl)-8-fluoro-2-(((2R,7aS)-2-fluorotetrahydro-1H-pyrrolizin-7a(5H)-yl)methoxy)-6-(trifluoromethyl)quinazolin-4-yl)pyrrolidin-3-yl)methanol] returned a half-inhibitory concentration (IC50) of 7.7 nM.
The figure for `Nc1cc(Cl)c(C(F)(F)F)c(-c2ncc3c(NC4CC4)nc(OC[C@@]45CCCN4C[C@H](F)C5)nc3c2F)c1` [Example 110, 7-(5-amino-3-chloro-2-(trifluoromethyl)phenyl)-N-cyclopropyl-8-fluoro-2-(((2R,7aS)-2-fluorotetrahydro-1H-pyrrolizin-7a(5H)-yl)methoxy) pyrido[4,3-d]pyrimidin-4-amine] is 17 nM.
The figure for `Nc1nc2c(-c3c(C(F)(F)F)cc4c(NC5CCCCC5)nc(OC[C@@]56CCCN5C[C@H](F)C6)nc4c3F)ccc(F)c2s1` [Example 27, 4-(4-(cyclohexylamino)-8-fluoro-2-(((2R,7aS)-2-fluorotetrahydro-1H-pyrrolizin-7a(5H)-yl)methoxy)-6-(trifluoromethyl)quinazolin-7-yl)-7-fluorobenzo[d]thiazol-2-amine] is 503 nM; for `Nc1nc2c(-c3c(C(F)(F)F)cc4c(N5CCC6(CC5)CNC(=O)C6)nc(OC[C@@]56CCCN5C[C@H](F)C6)nc4c3F)ccc(F)c2s1` [Example 96, 8-(7-(2-amino-7-fluorobenzo[d]thiazol-4-yl)-8-fluoro-2-(((2R,7aS)-2-fluorotetrahydro-1H-pyrrolizin-7a(5H)-yl)methoxy)-6-(trifluoromethyl)quinazolin-4-yl)-2,8-diazaspiro[4.5]decan-3-one] it is 1.5 nM.
The figure for `C[C@H]1COCCN1c1nc(OC[C@@]23CCCN2C[C@H](F)C3)nc2c(F)c(-c3cc(N)cc(Cl)c3C(F)(F)F)ncc12` [Example 114, 3-chloro-5-(8-fluoro-2-(((2R,7aS)-2-fluorotetrahydro-1H-pyrrolizin-7a(5H)-yl)methoxy)-4-((S)-3-methylmorpholino)pyrido[4,3-d]pyrimidin-7-yl)-4-(trifluoromethyl)aniline] is 9.2 nM; for `CC1(O)CN(c2nc(OC[C@@]34CCCN3C[C@H](F)C4)nc3c(F)c(-c4ccc(F)c5sc(N)nc45)c(C(F)(F)F)cc23)C1` [Example 46, 1-(7-(2-amino-7-fluorobenzo[d]thiazol-4-yl)-8-fluoro-2-(((2R,7aS)-2-fluorotetrahydro-1H-pyrrolizin-7a(5H)-yl)methoxy)-6-(trifluoromethyl)quinazolin-4-yl)-3-methylazetidin-3-ol] it is 7.1 nM.
In turn, `N#CC1CCN(c2nc(OC[C@@]34CCCN3C[C@H](F)C4)nc3c(F)c(-c4cc(N)cc(Cl)c4C(F)(F)F)ncc23)CC1F` (stereo partly drawn) [Example 122, 1-(7-(5-amino-3-chloro-2-(trifluoromethyl)phenyl)-8-fluoro-2-(((2R,7aS)-2-fluorotetrahydro-1H-pyrrolizin-7a(5H)-yl)methoxy)pyrido[4,3-d]pyrimidin-4-yl)-3-fluoropiperidine-4-carbonitrile] returned an IC50 of 28 nM.
Regarding `N#CC1CCN(c2nc(OC[C@@]34CCCN3C[C@H](F)C4)nc3c(F)c(-c4ccc(F)c5sc(N)nc45)c(C(F)(F)F)cc23)CC1F` (stereo partly drawn) [Example 72, 1-(7-(2-amino-7-fluorobenzo[d]thiazol-4-yl)-8-fluoro-2-(((2R,7aS)-2-fluorotetrahydro-1H-pyrrolizin-7a(5H)-yl)methoxy)-6-(trifluoromethyl)quinazolin-4-yl)-3-fluoropiperidine-4-carbonitrile], the IC50 came out at 2 nM.
The figure for `Nc1nc2c(-c3c(C(F)(F)F)cc4c(N5CC6CC5C6)nc(OC[C@@]56CCCN5C[C@H](F)C6)nc4c3F)ccc(F)c2s1` [Example 62, 4-(4-(2-azabicyclo[2.1.1]hexan-2-yl)-8-fluoro-2-(((2R,7aS)-2-fluorotetrahydro-1H-pyrrolizin-7a(5H)-yl)methoxy)-6-(trifluoromethyl)quinazolin-7-yl)-7-fluorobenzo[d]thiazol-2-amine] is 22 nM.
`Nc1nc2c(-c3c(Cl)cc4c(NC5CCC5)nc(OC[C@@]56CCCN5C[C@H](F)C6)nc4c3F)ccc(F)c2s1` [Example 31, 4-(6-chloro-4-(cyclobutylamino)-8-fluoro-2-(((2R,7aS)-2-fluorotetrahydro-1H-pyrrolizin-7a(5H)-yl)methoxy)quinazolin-7-yl)-7-fluorobenzo[d]thiazol-2-amine] came in with an IC50 of 57 nM.
`C[C@H]1COC[C@H](C)N1c1nc(OC[C@@]23CCCN2C[C@H](F)C3)nc2c(F)c(-c3cc(N)cc(Cl)c3C(F)(F)F)ncc12` [Example 118, 3-chloro-5-(4-((3S,5S)-3,5-dimethylmorpholino)-8-fluoro-2-(((2R,7aS)-2-fluorotetrahydro-1H-pyrrolizin-7a(5H)-yl)methoxy)pyrido[4,3-d]pyrimidin-7-yl)-4-(trifluoromethyl)aniline] gave an IC50 of 23 nM.
The figure for `N#CCC1CCN(c2nc(OC[C@@]34CCCN3C[C@H](F)C4)nc3c(F)c(-c4ccc(F)c5sc(N)nc45)c(C(F)(F)F)cc23)CC1` [Example 71, 2-(1-(7-(2-amino-7-fluorobenzo[d]thiazol-4-yl)-8-fluoro-2-(((2R,7aS)-2-fluorotetrahydro-1H-pyrrolizin-7a(5H)-yl)methoxy)-6-(trifluoromethyl)quinazolin-4-yl)piperidin-4-yl)acetonitrile] is 10 nM; for `Nc1cc(Cl)c(C(F)(F)F)c(-c2ncc3c(N4CCOCC4)nc(OC[C@@]45CCCN4C[C@H](F)C5)nc3c2F)c1` [Example 113, 3-chloro-5-(8-fluoro-2-(((2R,7aS)-2-fluorotetrahydro-1H-pyrrolizin-7a(5H)-yl)methoxy)-4-morpholinopyrido[4,3-d]pyrimidin-7-yl)-4-(trifluoromethyl)aniline] it is 11 nM.
On to `Cc1cc(N)nc(-c2c(Cl)cc3c(N4CCC(C#N)CC4)nc(OC[C@@]45CCCN4C[C@H](F)C5)nc3c2F)c1C(F)(F)F` [Example 103, 1-(7-(6-amino-4-methyl-3-(trifluoromethyl)pyridin-2-yl)-6-chloro-8-fluoro-2-(((2R,7aS)-2-fluorotetrahydro-1H-pyrrolizin-7a(5H)-yl)methoxy)quinazolin-4-yl)piperidine-4-carbonitrile], for which the IC50 was determined as 11 nM.
`Nc1nc2c(-c3c(C(F)(F)F)cc4c(N5CCC6(CC5)CN(CCO)C(=O)O6)nc(OC[C@@]56CCCN5C[C@H](F)C6)nc4c3F)ccc(F)c2s1` [Example 93, 8-(7-(2-amino-7-fluorobenzo[d]thiazol-4-yl)-8-fluoro-2-(((2R,7aS)-2-fluorotetrahydro-1H-pyrrolizin-7a(5H)-yl)methoxy)-6-(trifluoromethyl)quinazolin-4-yl)-3-(2-hydroxyethyl)-1-oxa-3,8-diazaspiro[4.5]decan-2-one] showed an IC50 of 2.2 nM.
The figure for `Nc1nc2c(-c3c(C(F)(F)F)cc4c(N5CCCCC5)nc(OC[C@@]56CCCN5C[C@H](F)C6)nc4c3F)ccc(F)c2s1` [Example 67, 7-fluoro-4-(8-fluoro-2-(((2R,7aS)-2-fluorotetrahydro-1H-pyrrolizin-7a(5H)-yl)methoxy)-4-(piperidin-1-yl)-6-(trifluoromethyl)quinazolin-7-yl)benzo[d]thiazol-2-amine] is 30 nM.
The figure for `Nc1nc2c(-c3c(Cl)cc4c(N[C@H]5[C@@H]6COC[C@@H]65)nc(OC[C@@]56CCCN5C[C@H](F)C6)nc4c3F)ccc(F)c2s1` [Example 29, 4-(4-(((1R,5S,6r)-3-oxabicyclo[3.1.0]hexan-6-yl)amino)-6-chloro-8-fluoro-2-(((2R,7aS)-2-fluorotetrahydro-1H-pyrrolizin-7a(5H)-yl)methoxy)quinazolin-7-yl)-7-fluorobenzo[d]thiazol-2-amine] is 15 nM.
On to `N#CCCC1CN(c2nc(OC[C@@]34CCCN3C[C@H](F)C4)nc3c(F)c(-c4ccc(F)c5sc(N)nc45)c(C(F)(F)F)cc23)C1` [Example 41, 3-(1-(7-(2-amino-7-fluorobenzo[d]thiazol-4-yl)-8-fluoro-2-(((2R,7aS)-2-fluorotetrahydro-1H-pyrrolizin-7a(5H)-yl)methoxy)-6-(trifluoromethyl)quinazolin-4-yl)azetidin-3-yl)propanenitrile], for which the IC50 is 12 nM.
The figure for `Nc1nc2c(-c3c(C(F)(F)F)cc4c(N5CC(F)(F)C5)nc(OC[C@@]56CCCN5C[C@H](F)C6)nc4c3F)ccc(F)c2s1` [Example 38, 4-(4-(3,3-difluoroazetidin-1-yl)-8-fluoro-2-(((2R,7aS)-2-fluorotetrahydro-1H-pyrrolizin-7a(5H)-yl)methoxy)-6-(trifluoromethyl)quinazolin-7-yl)-7-fluorobenzo[d]thiazol-2-amine] is 25 nM.
